Laboratory results taken from US20100310653A1, “USE OF AN EXTRACT MADE OF LEAVES OF GINKGO BILOBA” (DR. WILLMAR SCHWABE GMBH & CO. KG, priority 2007, published 2010).

Test: Concentration of lead substances in blood plasma against time after 120 mg Ginkgo extract tablet
Conditions: humans, one tablet with 120 mg Ginkgo extract, means of 12 test persons, FIG. 1
Text: The presented values are means of 12 test persons. The administered amount is equal to the daily maximum dose, recommended by the monograph.

## CC(C)(C)[C@]1(O)CC2OC(=O)CC23C(=O)OC2OC(=O)[C@H](O)C231 (stereo partly shown) [bilobalide]
  concentration in blood plasma 12 hours after intake: very little concentrations
